Laboratory results taken from patent US20260314599A1, “NEW USE OF PYDIFLUMETOFEN” (SYNGENTA CROP PROTECTION AG, priority 2022, published 2026).
≈ marks a conversion by molar mass, not a printed value. Where “and” joins values, the source holds several entries; their conditions need not be identical. Equal values may be shown once.

Legend:
[1] = system: Ustilaginoidea virens; experiment: In vitro activity of pydiflumetofen and other active ingredients against rice false smut, mycelial growth method (Example 2); type: cell-based; settings: for EC50: mycelial growth, same protocol as Example 1
Experimental: (§1) Ustilaginoidea virens, the pathogens that cause rice false smut, were isolated from infected rice tissues and stored at 4° C. Pathogen was applied to the PSA plate and incubated at 28° C. for 7 days. Mycelial plugs at the edge of the colony were prepared by hole puncher with a diameter of 5 mm. Pydiflumetofen was dissolved into dimethyl sulfoxide (DMSO) to get 4×10^4 μg/mL for stock solution. Mixing PSA culture medium with stock solution of pydiflumetofen to get different series of concentration: 0, 0.0005, 0.0010, 0.0025, 0.0040, 0.0055, and 0.007 μg/mL. Using the mycelial growth method, the mycelial plugs were shifted to the center of PSA medium plates containing different pydiflumetofen concentrations. […] EC50 values were determined by the fitted regression line of the log-transformed percentage inhibition plotted against the log-transformed fungicide concentration.
Using the same protocol as for Example 1 (above), the activity of pydiflumetofen against rice false smut was compared to that of other fungicidal active ingredients.
EC50 values were determined by the fitted regression line of the log-transformed percentage inhibition plotted against the log-transformed fungicide concentration. The lower the EC50 value, the higher the activity.

[2] = system: rice false smut; experiment: Field trial, efficacy against rice false smut at 77 days after application (Example 4); type: in vivo, Ustilaginoidea virens; settings: 75 gai/ha
Text: (§2) • Application Method: Foliar Spray • Water Volume: 450 L/ha • Number of Applications: 1 • Application Timing: BBCH 45-47

[3] = system: Ustilaginoidea virens; experiment: In vitro activity against rice false smut by mycelial growth method (Example 1); type: cell-based; settings: for Average mycelium growth diameter: untreated 35.63; for Mycelium diameter, Average: average of 8, untreated 40.63; for Mycelium diameter: individual replicates 1-8
Experimental: Example 1-In Vitro Activity of Pydiflumetofen Against Rice False Smut (Caused by Ustilaginoidea Virens) by Mycelial Growth Method
as §1
As stated above, EC50 values were determined by the fitted regression line of the log-transformed percentage inhibition plotted against the log-transformed fungicide concentration. The lower the EC50 value, the higher the activity.

[4] = system: rice false smut; experiment: Field trial, efficacy against rice false smut at 38 days after application (Example 3); type: in vivo, Ustilaginoidea virens; settings: 60-75 gai/ha
Text: as §2
A scale/index of 0 to 9 was used to define the level of disease severity, wherein 0 represents a healthy plant and 9 represents high levels/severe symptoms of disease. Each plant was graded on this 0 to 9 scale and the Disease Index calculated using the following formula:
Disease Index (DI)=[sum(class frequency×scpre of rating class)]/[(total number of plants)×(maximal disease index)]×100.

[5] = Ustilaginoidea virens, read-out: EC50

CC(C1CC1)C(O)(Cn1cncn1)c1ccc(Cl)cc1 (stereo not drawn) [Cyproconazole]
EC50 [1, 5]: 0.0387 µg/mL (≈ 0.133 µM)

CC1(C)CCC(Cc2ccc(Cl)cc2)C1(O)Cn1cncn1 (stereo not drawn) [Metconazole]
EC50 [1, 5]: 0.041 µg/mL (≈ 0.128 µM)

CCCC1COC(Cn2cncn2)(c2ccc(Cl)cc2Cl)O1 (stereo not drawn) [Propiconazole]
EC50 [1, 5]: 0.0205 µg/mL (≈ 0.0599 µM)

OC(Cc1ccccc1Cl)(Cn1nc[nH]c1=S)C1(Cl)CC1 (stereo not drawn) [Prothioconazole]
EC50 [1, 5]: 3.11 µg/mL (≈ 9.03 µM)

CON(C(=O)c1cn(C)nc1C(F)F)C(C)Cc1c(Cl)cc(Cl)cc1Cl (stereo not drawn) [Pydiflumetofen, 3-(difluoromethyl)-N-methoxy-1-methyl-N-[1-methyl-2-(2,4,6-trichloro-phenyl)ethyl]-1H-pyrazole-4-carboxamide]
control against rice false smut in the field (in words) [2]: good control
EC50 [1, 5]: 0.0045 µg/mL (≈ 0.0105 µM)
activity against Ustilaginoidea virens (in words) ([1]; compared to fungicides commonly used to treat rice false smut): very high activity
Average mycelium growth diameter ([3]; 0.0005 μg/mL, 28° C., 14 days): 33.13 mm
Mycelium diameter, Average ([3]; 0.0005 μg/mL, 28° C., 14 days): 38.13 mm
Mycelium diameter ([3]; 0.0005 μg/mL, 28° C., 14 days): 37 mm and 38 mm (5×) and 39 mm (2×)
Average mycelium growth diameter ([3]; 0.0010 μg/mL, 28° C., 14 days): 28.63 mm
Mycelium diameter, Average ([3]; 0.0010 μg/mL, 28° C., 14 days): 33.63 mm
Mycelium diameter ([3]; 0.0010 μg/mL, 28° C., 14 days): 32 mm (2×) and 34 mm (2×) and 33 mm (2×) and 35 mm and 36 mm
Average mycelium growth diameter ([3]; 0.0025 μg/mL, 28° C., 14 days): 20.75 mm
Mycelium diameter, Average ([3]; 0.0025 μg/mL, 28° C., 14 days): 25.75 mm
Mycelium diameter ([3]; 0.0025 μg/mL, 28° C., 14 days): 25 mm (4×) and 26 mm (3×) and 28 mm
Average mycelium growth diameter ([3]; 0.0040 μg/mL, 28° C., 14 days): 19.50 mm
Mycelium diameter, Average ([3]; 0.0040 μg/mL, 28° C., 14 days): 24.50 mm
Mycelium diameter ([3]; 0.0040 μg/mL, 28° C., 14 days): 24 mm (4×) and 25 mm (4×)
Average mycelium growth diameter ([3]; 0.0055 μg/mL, 28° C., 14 days): 17.75 mm
Mycelium diameter, Average ([3]; 0.0055 μg/mL, 28° C., 14 days): 22.75 mm
Mycelium diameter ([3]; 0.0055 μg/mL, 28° C., 14 days): 22 mm (3×) and 23 mm (4×) and 24 mm
Average mycelium growth diameter ([3]; 0.0070 μg/mL, 28° C., 14 days): 7.75 mm
Mycelium diameter, Average ([3]; 0.0070 μg/mL, 28° C., 14 days): 12.75 mm
Mycelium diameter ([3]; 0.0070 μg/mL, 28° C., 14 days): 13 mm (6×) and 12 mm (2×)
inhibition at 0.0005 µg/mL ([3]; Ustilaginoidea virens, 336 h, 0.0005 μg/mL, 28° C., 14 days): 7.02%
inhibition at 0.001 µg/mL ([3]; Ustilaginoidea virens, 336 h, 0.0010 μg/mL, 28° C., 14 days): 19.6%
inhibition at 0.0025 µg/mL ([3]; Ustilaginoidea virens, 336 h, 0.0025 μg/mL, 28° C., 14 days): 41.8%
inhibition at 0.004 µg/mL ([3]; Ustilaginoidea virens, 336 h, 0.0040 μg/mL, 28° C., 14 days): 45.3%
inhibition at 0.0055 µg/mL ([3]; Ustilaginoidea virens, 336 h, 0.0055 μg/mL, 28° C., 14 days): 50.2%
inhibition at 0.007 µg/mL ([3]; Ustilaginoidea virens, 336 h, 0.0070 μg/mL, 28° C., 14 days): 78.2%
EC50 ([3]; Ustilaginoidea virens, 336 h, mycelial growth, PSA, 28° C., 14 days): 0.0037 µg/mL (≈ 0.00867 µM)
activity against Ustilaginoidea virens (in words) ([3]; mycelial growth): very high activity
control against rice false smut in the field (in words) [4]: good control

CC(C)(C)C(O)(CCc1ccc(Cl)cc1)Cn1cncn1 (stereo not drawn) [Tebuconazole]
EC50 [1, 5]: 0.0761 µg/mL (≈ 0.247 µM)

Epoxiconazole
EC50 [1]: 0.0086 ppm
